Measured values taken from US7601687B2, “Mechanism for identifying drugs for the treatment of type II diabetes” (BioCrine AB, priority 2006, dated 2009).
Entries after “also recorded” stand apart in the source; their conditions may differ.

Test system: rat βGK promoter
Test: On-line monitoring of βGK promoter-driven GFP expression (prβGK.GFP) in transfected HIT-T15 cells, islet cells and islets
Format: cell-based, hamster (HIT-T15), rat (islet cells)
Settings: for effect of inhibitor on insulin-stimulated βGK transcription / promoter activity: 5 mU/ml insulin 5 min, 150 nM BIM, 20 μM PD98059, 10 μM PD169316, 100 μM HNMPA-(AM)3, 400 nM AC, FIG. 5; for effect of inhibitor on insulin-stimulated βGK transcription / promoter activity / effect of inhibitor on insulin-stimulated βGK promoter activity (GFP) in the same co-transfected cell: 25 μM LY294002, 10 nM rapamycin; for effect of inhibitor on insulin-stimulated βGK promoter activity (GFP) in the same co-transfected cell: 5 mU/ml insulin, 400 nM AC, 100 μM HNMPA-(AM)3
Description: Construction of prIns1.GFP has been described earlier (Leibiger et al., 1998a). Vector prIns1.DsRed was generated by exchanging the EGFP-expression cassette versus the DsRed-expression cassette obtained from pDsRed1-1 (Clontech). Plasmid prβGK.GFP (i.e. prβGK-278.GFP) was generated by exchanging the CAT-SV40pA-expression cassette of prβGK-278.CAT (Leibiger et al., 1994a) versus the EGFP-bGHpA-expression cassette obtained from pRcCMVI.GFP (Moede et al., 1999). […] All vector constructions were verified by DNA sequence analysis. […] Expression constructs pCMV5.PKBα, pCMV5.PKBαΔ308/437, pCMV5.PDK1 and pCMV5.PDK1-antisense were kindly provided by Drs. P. Cohen and D. R. Alessi (MRC Phosphorylation Unit, University of Dundee, UK).
HIT cells were reported to show glucose responsiveness at subphysiological concentrations between 0.1 and 2 mM (Sharma et al., 1995). HIT cells were grown in RPMI 1640 medium supplemented with 100 units/ml penicillin, 100 μg/ml streptomycin, 2 mM glutamine and 10% fetal calf serum at 5% CO2 and 37° C. Pancreatic islets were isolated from normally fed male Wistar rats and from mice by collagenase digestion. Isolated islets were incubated overnight at 5% CO2 and 37° C. in RPMI 1640 medium, supplemented as described above. Transfection of HIT-T15 and islet cells was performed overnight by the lipofectamine technique in RPMI 1640 medium, without serum and antibiotics. For on-line monitoring, cells were grown and transfected on 24-mm glass coverslips. Following transfection, HIT cells were cultured for 12-18 h in RPMI 1640 medium containing 0.1 mM glucose, 10% fetal calf serum and supplemented as above. Before stimulation, islets and islet cells were incubated for 2 h in RPMI 1640 medium, supplemented as above but containing 3 mM glucose. All expression constructs were prepared using the Qiagen Plasmid Maxi Kit (Qiagen), except those used to produce the adenoviruses which where purified by ultracentrifugation via a CsCI-gradient (as described in Sambrook et al, 1989).
Islets were transduced with Ad.rβGK.GFP or Ad.CMV.GFP by incubating 50 islets with 1 ml virus-containing medium for 90 min at 37° C. and 5% CO2. Following transduction, islets were washed 3 times with PBS and cultured further in RPMI 1640 medium. Islets were stimulated 40-72 h after transduction, as described below and analyzed by laser-scanning confocal microscopy.
All experiments were performed in RPMI 1640 medium, supplemented as above. Protein kinase inhibitors, antibodies or nifedipine were added to the culture medium 30 min prior to stimulation and were kept in the medium throughout stimulation. After stimulation islets, islet cells and HIT cells were cultured further at substimulatory glucose concentrations (0.1 mM for HIT cells and 3 mM for islets and islet cells). For RNA-analysis, islets and cells were harvested 60 min after start of stimulation, if not indicated otherwise. For analysis of protein kinase activities or tyrosine phosphorylation, cells were harvested immediately following stimulation.
Detection of fluorescence by digital imaging fluorescence microscopy was performed as described previously (Leibiger et al., 1998a; Leibiger et al., 1998b). Briefly, transfected cells were grown on 24-mm glass coverslips. After stimulation the coverslips were placed into a perifusion chamber which was mounted on an inverted microscope (Zeiss Axiovert 135TV). Temperature was kept at 37° C. and the cells were perfused with RPMI 1640 medium. The objective lens used was a Zeiss-Fluar ×40/1.30 oil Imm Korr. Fluorescence imaging was performed with a cooled charged-coupled device camera (CH250 with KAF 1400, Photometrics, Tucson, Ariz.) connected to an imaging system (Inovision) with fluorescence excitation from a SPEX fluorolog-2 CM1T11I spectrofluorometer (Spex Industries).

| Compound | effect of inhibitor on insulin-stimulated βGK transcription / promoter activity | effect of inhibitor on insulin-stimulated βGK promoter activity (GFP) in the same co-transfected cell | βGK promoter-driven GFP fluorescence upon insulin stimulation (5 mU insulin per ml for 5 min, substimulatory glucose) | amount of exogenous insulin required to gain an effect on βGK promoter activation (transfected HIT-T15 cells, supplemented culture medium (FIG. 4B)) |
| --- | --- | --- | --- | --- |
| CC(=O)OCOC(c1ccc2ccccc2c1)P(=O)(OCOC(C)=O)OCOC(C)=O (stereo not drawn) [HNMPA-(AM)3] | sensitive | abolished | – | – |
| autocamtide-2 related inhibitory peptide | altered neither | no effect | – | – |
| insulin | – | – | increase; also recorded: elevation | 20 μU per ml |
